Patent US11890279B2, “Quinolines that modulate SERCA and their use for treating disease” (Neurodon Corporation, priority 2020, dated 2024)

Tested on: not listed separately
Assay: Pharmacokinetics in CD-1 mice
Format: in vivo, mouse
Conditions: CD-1 mice; 10 mg/kg P.O. vs 2 mg/kg i.v.
Procedure: Pharmacokinetics of test compounds were assessed in CD-1 mice. The compounds were formulated at 1 mg/mL in DMSO/Tween 80/water (10/10/80, vol/vol/vol) and dosed at 2 mg/kg intravenous (i.v.) or 10 mg/kg by oral gavage (P.O.) in triplicate. Blood was drawn at 0.25 h, 0.5 h, 1 hr, 2 hrs, 4 hrs, 8 hrs, and 24 hrs into EDTA containing tubes and plasma was harvested by centrifugation. Plasma (10 μL) containing 50% acetonitrile in water (5 μL) was added to 200 μL of ACN containing an internal standard. The samples were vortexed for 30 s. After centrifugation at […] and 4,000 rpm for 15 min, the supernatant was diluted 3 times with water. Then, 20 μL of diluted supernatant was injected into the LC/MS/MS system for quantitative analysis. The samples were injected onto an Agilent ZORBAX XDB-Phenyl 5μ column (50×2.10 mm). Mobile Phase A was water with 0.1% formic acid. Mobile Phase B was acetonitrile with 0.1% formic acid. Separation was achieved using a gradient of 70% A/30% B to 0% A/100% B over 2.10 min. A Shimadzu LCMS-8050 equipped with a turbo ion spray source was used for all analytical measurements. A positive ion MRM method was developed. Peak areas of the product ion were measured against the peak areas of the internal standard. Data was fit using WinNonLin (Pharsight Corporation, Mountain View, CA).

**Q.** For `Cc1ccc2cccc(NC(=O)c3cc(Br)cs3)c2n1` [Compound G8, 4-Bromo-N-(2-methylquinolin-8-yl)thiophene-2-carboxamide], which F is on record?
**A.** 0.12%

Same assay, conditions: mouse, plasma; CD-1 mice; 2 mg/kg i.v. or 10 mg/kg P.O.

**Q.** For `Cc1ccc2cccc(NC(=O)c3cc(Br)cs3)c2n1` [Compound G8, 4-Bromo-N-(2-methylquinolin-8-yl)thiophene-2-carboxamide], which AUC is on record?
**A.** 0.78 ng·h/mL

**Q.** And the Cmax?
**A.** 10 nM

**Q.** What about the half-life of the same molecule?
**A.** 36 min

Tested on: CSM14.1 cells
Assay: ER stress cell survival assay (thapsigargin);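 further: survival read as CellTiter-Glo luminescence after overnight incubation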
Format: cell-based
Conditions: compound 2 μM; about 15 μM thapsigargin; CSM14.1 cells
Procedure: ER Stress Cell Survival Assay
CSM14.1 cells were maintained in Complete Medium at 32° C.; wherein the Complete Medium contained Dulbecco's modified eagle medium (DMEM) with 10% fetal bovine serum (FSB), 1% L-glutamine, 100 IU/mL penicillin, and 100 μg/mL streptomycin. The cells were recovered from cultures by trypsinization and then seeded in 384 well plates (Greiner #781098) at a concentration of 1,000 cells/well in 20 μL of DMEM Assay Medium, wherein the DMEM Assay Medium contained 2% FBS, 100 IU/mL penicillin, and 100 μg/mL streptomycin. Seeding was performed using a MultiDrop Combi reagent broadcaster. The plates were incubated overnight at 32° C.
A test compound was prepared by 2-fold serial dilution in 100% DMSO using a BIOMEK® 2000 liquid handler (Beckman Coulter). A dose-response curve containing 10 concentrations of the test compound was obtained. Using a BIOMEK® FX liquid handler (Beckman Coulter), 2.5 μL of the test compound was transferred from the 100% DMSO serial dilution plate to an intermediate plate containing 47.5 μL of DMEM Assay Medium containing 2% FBS, 100 IU/mL penicillin, and 100 μg/mL streptomycin and mixed. To reduce or eliminate the interference from the compound's precipitation, 6 μL of the diluted compound was immediately transferred to the assay plate to achieve a high compound concentration of 100 μM in 99% DMEM Assay Medium and 1% DMSO. After the assay plates were incubated for 2 hrs, 4 μL of 112.5 μM thapsigargin (TG) (DMSO stock diluted into Assay TC Medium) was dispensed into each testing well with a MultiDrop Combi reagent broadcaster for a final concentration of about 15 μM TG. The tissue culture media (4 μL) containing vehicle only was transferred manually to each control cell using a 16 channel electronic pipette. […] High luminescence indicates cell survival.
Alternatively, a test compound was tested at a single compound concentration (e.g., 2 μM) to determine the effect of the compound on cell survival in comparison with vehicle.

**Q.** For `Cc1ccc2cccc(NC(=O)c3ccc(Br)cc3)c2n1` [Compound C1, 4-Bromo-N-(2-methylquinolin-8-yl)benzamide], which “Cell Survival” value is on record?
**A.** A (A represents a value greater than 50%)

**Q.** For `Cc1ccc2cccc(NC(=O)c3ccccc3F)c2n1` [Compound C2, 2-Fluoro-N-(2-methylquinolin-8-yl)benzamide], which “Cell Survival” value is on record?
**A.** A (A represents a value greater than 50%)

**Q.** For `Cc1ccc2cccc(NC(=O)c3ccccc3[N+](=O)[O-])c2n1` [Compound C3, 2-Nitro-N-(2-methylquinolin-8-yl)benzamide], which “Cell Survival” value is on record?
**A.** B (B represents a value between 10% and 50%)

**Q.** Which “Cell Survival” value does the source give for `Cc1ccc2cccc(NC(=O)c3cccc(OC(F)(F)F)c3)c2n1` [Compound C4, 3-Trifluoromethoxy-N-(2-methylquinolin-8-yl)benzamide] here?
**A.** B (B represents a value between 10% and 50%)

**Q.** With `Cc1ccc2cccc(NC(=O)c3cccc(F)c3)c2n1` [Compound C6, 3-Fluoro-N-(2-methylquinolin-8-yl)benzamide] as the molecule, how does the “Cell Survival” value read?
**A.** C (C represents a value between 1% and 10%)

**Q.** With `Cc1ccc2cccc(NC(=O)c3cccc([N+](=O)[O-])c3)c2n1` [Compound C7, 3-Nitro-N-(2-methylquinolin-8-yl)benzamide] as the molecule, how does the “Cell Survival” value read?
**A.** C (C represents a value between 1% and 10%)

**Q.** For `Cc1ccc2cccc(NC(=O)c3ccc([N+](=O)[O-])cc3)c2n1` [Compound C8, 4-Nitro-N-(2-methylquinolin-8-yl)benzamide], which “Cell Survival” value is on record?
**A.** D (D represents a value no greater than 1%)

**Q.** For `Cc1ccc2cccc(NC(=O)c3ccccc3Cl)c2n1` [Compound C9, 2-Chloro-N-(2-methylquinolin-8-yl)benzamide], which “Cell Survival” value is on record?
**A.** D (D represents a value no greater than 1%)

**Q.** For `Cc1ccc2cccc(NC(=O)c3ccc(OC(F)(F)F)cc3)c2n1` [Compound C11, 4-Trifluoromethoxy-N-(2-methylquinolin-8-yl)benzamide], which “Cell Survival” value is on record?
**A.** D (D represents a value no greater than 1%)

**Q.** With `Cc1ccc2cccc(NC(=O)c3cccc(C(F)(F)F)c3)c2n1` [Compound C12, 3-Trifluoromethyl-N-(2-methylquinolin-8-yl)benzamide] as the molecule, how does the “Cell Survival” value read?
**A.** D (D represents a value no greater than 1%)

**Q.** For `CCOc1ccc(C(=O)Nc2cccc3ccc(C)nc23)cc1` [Compound C13, 4-Ethoxy-N-(2-methylquinolin-8-yl)benzamide], which “Cell Survival” value is on record?
**A.** D (D represents a value no greater than 1%)

**Q.** For `Cc1ccc2cccc(NC(=O)c3ccc(F)cc3)c2n1` [Compound C14, 4-Fluoro-N-(2-methylquinolin-8-yl)benzamide], which “Cell Survival” value is on record?
**A.** D (D represents a value no greater than 1%)

**Q.** For `Cc1ccc2cccc(NC(=O)c3cccc(Cl)c3)c2n1` [Compound C15, 3-Chloro-N-(2-methylquinolin-8-yl)benzamide], which “Cell Survival” value is on record?
**A.** D (D represents a value no greater than 1%)

**Q.** With `Cc1ccc2cccc(NC(=O)c3cccc(Br)c3)c2n1` [Compound C16, 3-Bromo-N-(2-methylquinolin-8-yl)benzamide] as the molecule, how does the “Cell Survival” value read?
**A.** D (D represents a value no greater than 1%)

**Q.** With `Cc1ccc2cccc(NC(=O)c3ccc(Cl)cc3)c2n1` [Compound C17, 4-Chloro-N-(2-methylquinolin-8-yl)benzamide] as the molecule, how does the “Cell Survival” value read?
**A.** D (D represents a value no greater than 1%)

**Q.** With `Cc1ccc2cccc(NC(=O)c3ccc(SC(C)C)cc3)c2n1` [Compound C21, 4-(Isopropylthio)-N-(2-methylquinolin-8-yl)benzamide] as the molecule, how does the “Cell Survival” value read?
**A.** C (C represents a value between 1% and 10%)

Tested on: N2a cells
Assay: Protection against hydrogen peroxide-induced cell death, N2a
Format: cell-based, mouse
Conditions: compound 40 μM; hydrogen peroxide 200 μM
Procedure: Protection against Hydrogen Peroxide-induced Cell-death. N2a cells grown in 96-well plates were exposed to a test compound (40 μM) for 2 hrs before addition of hydrogen peroxide (200 μM). After 40 min of incubation with hydrogen peroxide, ALAMARBLUE® regent (10% v/v) was added to the wells. Fluorescence reading was taken 2 hrs after the addition of the ALAMARBLUE® regent. Cell-viability was calculated as a percentage of relative fluorescence unit (RFU) compared to control.
The results are summarized in Table 2, where A represents a value greater than 50% cell rescue, B represents a value between 10% to 50% cell rescue, C represents a value between 1% to 10% cell rescue, and D represents a value no greater than 1% cell rescue.

**Q.** With `Cc1ccc2cccc(NC(=O)c3cccs3)c2n1` [Compound G1, N-(2-Methylquinolin-8-yl)thiophene-2-carboxamide] as the molecule, how does the “N2a Cells (H2O2-induced) cell rescue” value read?
**A.** B (B represents a value between 10% to 50% cell rescue)

**Q.** Which “N2a Cells (H2O2-induced) cell rescue” value does the source give for `Cc1ccc2cccc(NC(=O)c3sccc3C)c2n1` [Compound G3, 3-Methyl-N-(2-methylquinolin-8-yl)thiophene-2-carboxamide] here?
**A.** B (B represents a value between 10% to 50% cell rescue)

**Q.** For `Cc1ccc2cccc(NC(=O)c3ccc(Cl)s3)c2n1` [Compound G4, 5-Chloro-N-(2_methylquinolin-8-yl)thiophene-2-carboxamide], which “N2a Cells (H2O2-induced) cell rescue” value is on record?
**A.** B (B represents a value between 10% to 50% cell rescue)

**Q.** Which “N2a Cells (H2O2-induced) cell rescue” value does the source give for `CC(=O)c1ccc(C(=O)Nc2cccc3ccc(C)nc23)s1` [Compound G5, 5-Acetyl-N-(2-methylquinolin-8-yl)thiophene-2-carboxamide] here?
**A.** B (B represents a value between 10% to 50% cell rescue)

**Q.** With `O=C(Nc1cccc2cccnc12)c1ccc(Br)s1` [Compound H1, 5-Bromo-N-(quinolin-8-yl)thiophene-2-carboxamide] as the molecule, how does the “N2a Cells (H2O2-induced) cell rescue” value read?
**A.** B (B represents a value between 10% to 50% cell rescue)

**Q.** With `O=C(Nc1cccc2cccnc12)c1cccs1` [Compound H2, N-(quinolin-8-yl)thiophene-2-carboxamide] as the molecule, how does the “N2a Cells (H2O2-induced) cell rescue” value read?
**A.** B (B represents a value between 10% to 50% cell rescue)

**Q.** For `Cc1ccc(C(=O)Nc2cccc3cccnc23)s1` [Compound H3, 5-Methyl-N-(quinolin-8-yl)thiophene-2-carboxamide], which “N2a Cells (H2O2-induced) cell rescue” value is on record?
**A.** A (A represents a value greater than 50% cell rescue)

**Q.** For `Cc1ccsc1C(=O)Nc1cccc2cccnc12` [Compound H4, 3-Methyl-N-(quinolin-8-yl)thiophene-2-carboxamide], which “N2a Cells (H2O2-induced) cell rescue” value is on record?
**A.** A (A represents a value greater than 50% cell rescue)

**Q.** With `O=C(Nc1cccc2cccnc12)c1ccc(Cl)s1` [Compound H5, 5-Chloro-N-(quinolin-8-yl)thiophene-2-carboxamide] as the molecule, how does the “N2a Cells (H2O2-induced) cell rescue” value read?
**A.** B (B represents a value between 10% to 50% cell rescue)

**Q.** Which “N2a Cells (H2O2-induced) cell rescue” value does the source give for `CC(=O)c1ccc(C(=O)Nc2cccc3cccnc23)s1` [Compound H6, 5-Acetyl-N-(quinolin-8-yl)thiophene-2-carboxamide] here?
**A.** B (B represents a value between 10% to 50% cell rescue)

**Q.** With `O=C(Nc1cccc2cccnc12)c1cc2ccccc2o1` [Compound H7, N-(Quinolin-8-yl)benzofuran-2-carboxamide] as the molecule, how does the “N2a Cells (H2O2-induced) cell rescue” value read?
**A.** B (B represents a value between 10% to 50% cell rescue)

**Q.** Which “N2a Cells (H2O2-induced) cell rescue” value does the source give for `O=C(Nc1cccc2cccnc12)c1ccc([N+](=O)[O-])s1` [Compound H8, 5-Nitro-N-(quinolin-8-yl)thiophene-2-carboxamide] here?
**A.** B (B represents a value between 10% to 50% cell rescue)

**Q.** With `O=C(Nc1cccc2cccnc12)c1cc(Br)cs1` [Compound H9, 4-Bromo-N-(quinolin-8-yl)thiophene-2-carboxamide] as the molecule, how does the “N2a Cells (H2O2-induced) cell rescue” value read?
**A.** A (A represents a value greater than 50% cell rescue)

**Q.** With `O=C(Nc1cccc2cccnc12)c1sc(Br)cc1Br` [Compound H10, 3,5-Dibromo-N-(quinolin-8-yl)thiophene-2-carboxamide] as the molecule, how does the “N2a Cells (H2O2-induced) cell rescue” value read?
**A.** B (B represents a value between 10% to 50% cell rescue)

**Q.** For `O=C(Nc1cccc2cccnc12)c1cc(Br)c(Br)s1` [Compound H11, 4,5-Dibromo-N-(quinolin-8-yl)thiophene-2-carboxamide], which “N2a Cells (H2O2-induced) cell rescue” value is on record?
**A.** A (A represents a value greater than 50% cell rescue)
